# Numbers after ± are expanded uncertainties.
# Legend:
# [1] = molar heat capacity at constant pressure; conditions: 101.33 kPa, Laser pulse heating
# [2] = for thermal diffusivity: 101.33 kPa, Laser flash
compound,measurement,setting,value
[Zr] [zirconium],molar heat capacity at constant pressure,"[1]; 293 K, Crystal 2",26.31 ± 1.7 J/K/mol
same,molar heat capacity at constant pressure,"[1]; 323 K, Crystal 2",26.57 ± 1.4 J/K/mol
same,molar heat capacity at constant pressure,"[1]; 373 K, Crystal 2",26.89 ± 0.97 J/K/mol
same,molar heat capacity at constant pressure,"[1]; 423 K, Crystal 2",27.31 ± 0.9 J/K/mol
same,molar heat capacity at constant pressure,"[1]; 473 K, Crystal 2",27.78 ± 0.88 J/K/mol
same,molar heat capacity at constant pressure,"[1]; 523 K, Crystal 2",28.27 ± 0.88 J/K/mol
same,molar heat capacity at constant pressure,"[1]; 573 K, Crystal 2",28.82 ± 0.89 J/K/mol
same,molar heat capacity at constant pressure,"[1]; 623 K, Crystal 2",29.33 ± 0.91 J/K/mol
same,molar heat capacity at constant pressure,"[1]; 673 K, Crystal 2",29.88 ± 0.93 J/K/mol
same,molar heat capacity at constant pressure,"[1]; 723 K, Crystal 2",30.6 ± 0.95 J/K/mol
same,molar heat capacity at constant pressure,"[1]; 773 K, Crystal 2",31.24 ± 0.94 J/K/mol
same,molar heat capacity at constant pressure,"[1]; 823 K, Crystal 2",31.87 ± 0.96 J/K/mol
same,molar heat capacity at constant pressure,"[1]; 873 K, Crystal 2",32.53 ± 0.98 J/K/mol
same,molar heat capacity at constant pressure,"[1]; 923 K, Crystal 2",33.26 ± 0.99 J/K/mol
same,molar heat capacity at constant pressure,"[1]; 973 K, Crystal 2",33.94 ± 1 J/K/mol
same,molar heat capacity at constant pressure,"[1]; 1023 K, Crystal 2",34.6 ± 1 J/K/mol
same,molar heat capacity at constant pressure,"[1]; 1073 K, Crystal 2",35.23 ± 1.1 J/K/mol
same,molar heat capacity at constant pressure,"[1]; 1083 K, Crystal 2",35.42 ± 1.1 J/K/mol
same,molar heat capacity at constant pressure,"[1]; 1093 K, Crystal 2",35.84 ± 1.3 J/K/mol
same,molar heat capacity at constant pressure,"[1]; 1103 K, Crystal 2",36.88 ± 1.6 J/K/mol
same,molar heat capacity at constant pressure,"[1]; 1113 K, Crystal 2",39.48 ± 2.2 J/K/mol
same,molar heat capacity at constant pressure,"[1]; 1123 K, Crystal 2",43.12 ± 3.2 J/K/mol
same,molar heat capacity at constant pressure,"[1]; 1128 K, Crystal 2",45.62 ± 4 J/K/mol
same,molar heat capacity at constant pressure,"[1]; 1133 K, Crystal 2",49.09 ± 5.3 J/K/mol
same,molar heat capacity at constant pressure,"[1]; 1138 K, Crystal 2",61.42 ± 8.2 J/K/mol
same,molar heat capacity at constant pressure,"[1]; 1143 K, Crystal 1",52.29 ± 5.5 J/K/mol
same,molar heat capacity at constant pressure,"[1]; 1148 K, Crystal 1",42.04 ± 5.6 J/K/mol
same,molar heat capacity at constant pressure,"[1]; 1153 K, Crystal 1",33.83 ± 4.4 J/K/mol
same,molar heat capacity at constant pressure,"[1]; 1163 K, Crystal 1",31 ± 2.9 J/K/mol
same,molar heat capacity at constant pressure,"[1]; 1173 K, Crystal 1",29.58 ± 1.8 J/K/mol
same,molar heat capacity at constant pressure,"[1]; 1223 K, Crystal 1",29.71 ± 0.89 J/K/mol
same,molar heat capacity at constant pressure,"[1]; 1273 K, Crystal 1",30.06 ± 0.9 J/K/mol
same,molar heat capacity at constant pressure,"[1]; 1323 K, Crystal 1",30.23 ± 0.9 J/K/mol
same,molar heat capacity at constant pressure,"[1]; 1373 K, Crystal 1",30.3 ± 0.91 J/K/mol
same,molar heat capacity at constant pressure,"[1]; 1423 K, Crystal 1",30.53 ± 0.91 J/K/mol
same,molar heat capacity at constant pressure,"[1]; 1473 K, Crystal 1",30.72 ± 0.92 J/K/mol
same,molar heat capacity at constant pressure,"[1]; 1523 K, Crystal 1",30.91 ± 0.93 J/K/mol
same,molar heat capacity at constant pressure,"[1]; 1573 K, Crystal 1",31.36 ± 0.94 J/K/mol
same,molar heat capacity at constant pressure,"[1]; 1623 K, Crystal 1",31.34 ± 0.94 J/K/mol
same,molar heat capacity at constant pressure,"[1]; 1673 K, Crystal 1",31.59 ± 0.95 J/K/mol
same,molar heat capacity at constant pressure,"[1]; 1723 K, Crystal 1",32.07 ± 0.96 J/K/mol
same,molar heat capacity at constant pressure,"[1]; 1773 K, Crystal 1",32.8 ± 0.99 J/K/mol
same,molar heat capacity at constant pressure,"[1]; 1823 K, Crystal 1",33.31 ± 1 J/K/mol
same,molar heat capacity at constant pressure,"[1]; 1873 K, Crystal 1",33.5 ± 1 J/K/mol
same,molar heat capacity at constant pressure,"[1]; 1923 K, Crystal 1",33.68 ± 1 J/K/mol
same,molar heat capacity at constant pressure,"[1]; 1973 K, Crystal 1",34.23 ± 1 J/K/mol
same,thermal diffusivity,"[2]; 289 K, Crystal 2",1.25e-05 ± 1.7e-06 m2/s
same,thermal diffusivity,"[2]; 327 K, Crystal 2",1.17e-05 ± 7e-07 m2/s
same,thermal diffusivity,"[2]; 379 K, Crystal 2",1.11e-05 ± 4e-07 m2/s
same,thermal diffusivity,"[2]; 423 K, Crystal 2",1.07e-05 ± 5e-07 m2/s
same,thermal diffusivity,"[2]; 473 K, Crystal 2",1.03e-05 ± 2e-07 m2/s
same,thermal diffusivity,"[2]; 524 K, Crystal 2",1.01e-05 ± 6e-07 m2/s
same,thermal diffusivity,"[2]; 569 K, Crystal 2",9.95e-06 ± 2e-07 m2/s
same,thermal diffusivity,"[2]; 621 K, Crystal 2",9.84e-06 ± 8e-07 m2/s
same,thermal diffusivity,"[2]; 670 K, Crystal 2",9.74e-06 ± 7e-07 m2/s
same,thermal diffusivity,"[2]; 715 K, Crystal 2",9.76e-06 ± 5e-07 m2/s
same,thermal diffusivity,"[2]; 772 K, Crystal 2",9.89e-06 ± 6e-07 m2/s
same,thermal diffusivity,"[2]; 827 K, Crystal 2",9.97e-06 ± 5e-07 m2/s
same,thermal diffusivity,"[2]; 872 K, Crystal 2",1.01e-05 ± 1.2e-06 m2/s
same,thermal diffusivity,"[2]; 923 K, Crystal 2",1.02e-05 ± 2e-07 m2/s
same,thermal diffusivity,"[2]; 970 K, Crystal 2",1.03e-05 ± 1.6e-06 m2/s
same,thermal diffusivity,"[2]; 1023 K, Crystal 2",1.05e-05 ± 6e-07 m2/s
same,thermal diffusivity,"[2]; 1068 K, Crystal 2",1.06e-05 ± 8e-07 m2/s
same,thermal diffusivity,"[2]; 1121 K, Crystal 2",9.27e-06 ± 9e-07 m2/s
same,thermal diffusivity,"[2]; 1132 K, Crystal 2",8.29e-06 ± 1.7e-06 m2/s
same,thermal diffusivity,"[2]; 1143 K, Crystal 1",7.99e-06 m2/s
same,thermal diffusivity,"[2]; 1150 K, Crystal 1",1.09e-05 ± 2.3e-06 m2/s
same,thermal diffusivity,"[2]; 1177 K, Crystal 1",1.41e-05 ± 5e-07 m2/s
same,thermal diffusivity,"[2]; 1218 K, Crystal 1",1.43e-05 ± 9e-07 m2/s
same,thermal diffusivity,"[2]; 1272 K, Crystal 1",1.48e-05 ± 3e-07 m2/s
same,thermal diffusivity,"[2]; 1317 K, Crystal 1",1.5e-05 ± 1.9e-06 m2/s
same,thermal diffusivity,"[2]; 1370 K, Crystal 1",1.51e-05 ± 8e-07 m2/s
same,thermal diffusivity,"[2]; 1431 K, Crystal 1",1.57e-05 ± 1.8e-06 m2/s
same,thermal diffusivity,"[2]; 1468 K, Crystal 1",1.57e-05 ± 2.3e-06 m2/s
same,Triple point temperature,"[2]; Crystal 2, Laser pulse heating",1141.4 ± 10 K

# — the NIST ThermoML archive (doi:10.1007/s10765-006-0080-z)
